Assay results published in PubChem BioAssay (NCI).
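1) Cells in 96-well plates. 2) Compound, 48 h, 5 concentrations. 3) Linear interpolation between surrounding doses. 4) Unreached endpoint = highest concentration. Here, GI50 denotes the concentration required for 50% inhibition of growth. Definition used: TGI = concentration required for complete inhibition of growth.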

Assays:
Test in all cases: growth of human tumour cells (NCI), 48 h
786-0 renal = test system: 786-0 renal
A498 renal = test system: A498 renal
A549 NSCLC = test system: A549 NSCLC
ACHN renal = test system: ACHN renal
BT-549 breast = test system: BT-549 breast
CAKI-1 renal = test system: CAKI-1 renal
CCRF-CEM leukemia = test system: CCRF-CEM leukemia
COLO 205 colon = test system: COLO 205 colon
DU-145 prostate = test system: DU-145 prostate
EKVX NSCLC = test system: EKVX NSCLC
HCC-2998 colon = test system: HCC-2998 colon
HCT-116 colon = test system: HCT-116 colon
HCT-15 colon = test system: HCT-15 colon
HL-60(TB) leukemia = test system: HL-60(TB) leukemia
HOP-62 NSCLC = test system: HOP-62 NSCLC
HOP-92 NSCLC = test system: HOP-92 NSCLC
HS 578T breast = test system: HS 578T breast
HT29 colon = test system: HT29 colon
IGROV1 ovarian = test system: IGROV1 ovarian
K-562 leukemia = test system: K-562 leukemia
KM12 colon = test system: KM12 colon
LOX IMVI melanoma = test system: LOX IMVI melanoma
MALME-3M melanoma = test system: MALME-3M melanoma
MCF7 breast = test system: MCF7 breast
MDA-MB-231 breast = test system: MDA-MB-231 breast
MDA-MB-435 = test system: MDA-MB-435
MOLT-4 leukemia = test system: MOLT-4 leukemia
NCI-H226 lung = test system: NCI-H226 lung
NCI-H23 lung = test system: NCI-H23 lung
NCI-H460 lung = test system: NCI-H460 lung
NCI-H522 lung = test system: NCI-H522 lung
NCI/ADR-RES ovarian = test system: NCI/ADR-RES ovarian
OVCAR-3 ovarian = test system: OVCAR-3 ovarian
OVCAR-4 ovarian = test system: OVCAR-4 ovarian
OVCAR-5 ovarian = test system: OVCAR-5 ovarian
OVCAR-8 ovarian = test system: OVCAR-8 ovarian
PC-3 prostate = test system: PC-3 prostate
RPMI-8226 leukemia = test system: RPMI-8226 leukemia
RXF 393 renal = test system: RXF 393 renal
SF-268 CNS = test system: SF-268 CNS
SF-295 CNS = test system: SF-295 CNS
SF-539 CNS = test system: SF-539 CNS
SK-MEL-2 melanoma = test system: SK-MEL-2 melanoma
SK-MEL-28 melanoma = test system: SK-MEL-28 melanoma
SK-MEL-5 melanoma = test system: SK-MEL-5 melanoma
SK-OV-3 ovarian = test system: SK-OV-3 ovarian
SN12C renal = test system: SN12C renal
SNB-19 CNS = test system: SNB-19 CNS
SNB-75 CNS = test system: SNB-75 CNS
SR leukemia = test system: SR leukemia
SW-620 colon = test system: SW-620 colon
T-47D breast = test system: T-47D breast
TK-10 renal = test system: TK-10 renal
U251 CNS = test system: U251 CNS
UACC-257 melanoma = test system: UACC-257 melanoma
UACC-62 melanoma = test system: UACC-62 melanoma
UO-31 renal = test system: UO-31 renal

## O=c1cc(NCC(O)CN2CCOCC2)n(Cc2ccccc2)c(=O)n1Cc1ccccc1 (centres undefined)
786-0 renal
  GI50: 41.4 µM
  TGI: > 100 µM
A498 renal
  GI50: 49.3 µM
  TGI: > 100 µM
A549 NSCLC
  GI50: 53.5 µM
  TGI: > 100 µM
ACHN renal
  GI50: 49.8 µM
  TGI: > 100 µM
BT-549 breast
  GI50: 45.9 µM
  TGI: > 100 µM
CAKI-1 renal
  GI50: 85.9 µM
  TGI: > 100 µM
CCRF-CEM leukemia
  GI50: 36.9 µM
  TGI: > 100 µM
COLO 205 colon
  GI50: 23.5 µM
  TGI: 58.6 µM
DU-145 prostate
  GI50: 51.7 µM
  TGI: > 100 µM
EKVX NSCLC
  GI50: 70.6 µM
  TGI: > 100 µM
HCC-2998 colon
  GI50: 34.9 µM
  TGI: > 100 µM
HCT-116 colon
  GI50: 34.8 µM
  TGI: > 100 µM
HCT-15 colon
  GI50: 45.5 µM
  TGI: > 100 µM
HL-60(TB) leukemia
  GI50: 12.6 µM
  TGI: > 100 µM
HOP-62 NSCLC
  GI50: 34.2 µM
  TGI: > 100 µM
HOP-92 NSCLC
  GI50: 21.7 µM
  TGI: 77.1 µM
HS 578T breast
  GI50: 37.8 µM
  TGI: > 100 µM
HT29 colon
  GI50: 18.8 µM
  TGI: 41.6 µM
IGROV1 ovarian
  GI50: 33.5 µM
  TGI: 86.3 µM
K-562 leukemia
  GI50: 30.8 µM
  TGI: > 100 µM
KM12 colon
  GI50: 36.1 µM
  TGI: > 100 µM
LOX IMVI melanoma
  GI50: 37.8 µM
  TGI: > 100 µM
MALME-3M melanoma
  GI50: 26.9 µM
  TGI: 77.3 µM
MCF7 breast
  GI50: 41.8 µM
  TGI: > 100 µM
MDA-MB-231 breast
  GI50: 19.2 µM
  TGI: 53.6 µM
MDA-MB-435
  GI50: 59.7 µM
  TGI: > 100 µM
MOLT-4 leukemia
  GI50: 27.8 µM
  TGI: > 100 µM
NCI-H226 lung
  GI50: 56.8 µM
  TGI: > 100 µM
NCI-H23 lung
  GI50: 42.5 µM
  TGI: > 100 µM
NCI-H460 lung
  GI50: 44.2 µM
  TGI: > 100 µM
NCI-H522 lung
  GI50: 28.1 µM
  TGI: 72 µM
NCI/ADR-RES ovarian
  GI50: 65.7 µM
  TGI: > 100 µM
OVCAR-3 ovarian
  GI50: 56.2 µM
  TGI: > 100 µM
OVCAR-4 ovarian
  GI50: 39.9 µM
  TGI: > 100 µM
OVCAR-5 ovarian
  GI50: > 100 µM
  TGI: > 100 µM
OVCAR-8 ovarian
  GI50: 72.8 µM
  TGI: > 100 µM
PC-3 prostate
  GI50: 33.7 µM
  TGI: > 100 µM
RPMI-8226 leukemia
  GI50: 28.3 µM
  TGI: 78 µM
RXF 393 renal
  GI50: 30.5 µM
  TGI: 92.5 µM
SF-268 CNS
  GI50: 63.6 µM
  TGI: > 100 µM
SF-295 CNS
  GI50: 41.2 µM
  TGI: > 100 µM
SF-539 CNS
  GI50: 60.2 µM
  TGI: > 100 µM
SK-MEL-2 melanoma
  GI50: > 100 µM
  TGI: > 100 µM
SK-MEL-28 melanoma
  GI50: 28.7 µM
  TGI: 70.3 µM
SK-MEL-5 melanoma
  GI50: 19.2 µM
  TGI: 35 µM
SK-OV-3 ovarian
  GI50: > 100 µM
  TGI: > 100 µM
SN12C renal
  GI50: 42.3 µM
  TGI: > 100 µM
SNB-19 CNS
  GI50: > 100 µM
  TGI: > 100 µM
SNB-75 CNS
  GI50: 31.8 µM
  TGI: 91.3 µM
SR leukemia
  GI50: 19.8 µM
  TGI: 49.3 µM
SW-620 colon
  GI50: 62.5 µM
  TGI: > 100 µM
T-47D breast
  GI50: 61 µM
  TGI: > 100 µM
TK-10 renal
  GI50: > 100 µM
  TGI: > 100 µM
U251 CNS
  GI50: 47.6 µM
  TGI: > 100 µM
UACC-257 melanoma
  GI50: 30.2 µM
  TGI: 85.8 µM
UACC-62 melanoma
  GI50: 22.7 µM
  TGI: 63.3 µM
UO-31 renal
  GI50: 27.3 µM
  TGI: 85.8 µM
